Experimental data taken from PMC2690574 (Journal of medicinal chemistry, 2008).
Read-outs that look alike come from different tables or passages of the source.

Columns and labels:
[1] = system: anoxic HT29 cell suspensions; experiment: Rate constant for metabolic consumption kmet in anoxic single cell suspensions; format: in vitro ADME; conditions: scaled to the cell density in MCLs
[2] = One electron reduction potential E; format: physicochemical; conditions: anaerobic aqueous solution, pH 7.0, pulse radiolysis
[3] = system: anoxic HT29 tumor tissue; experiment: Penetration half distance X½ calculated from D and kmet; conditions: for EVT based on X½ (in words): compared with TPZ
[4] = system: HT29 cells; experiment: IC50 assay, 4 h drug exposure under aerobic and anoxic conditions, HT29; format: cell-based; conditions: criterion HCR > 20 in the PK/PD model
[5] = calculated using ACD logD, pH 7.4; cited from earlier work
[6] = culture medium; cited from earlier work
[7] = cited from earlier work; for E(1): one electron reduction potential
[8] = side chain, calculated using ACD pKa; cited from earlier work
[9] = system: HT29 MCLs; conditions: calculated; cited from earlier work
[10] = system: SiHa cells; conditions: cited from earlier work
[11] = system: HT29 cells; conditions: read-out: HT29 IC50 hypox; HT29, anoxic; cited from earlier work
[12] = system: anoxic HT29 cell suspensions; conditions: scaled to MCL cell density; cited from earlier work

SMILES: Nc1n[n+]([O-])c2cc3c(cc2[n+]1[O-])CCC3 [TTO 3]
- kmet (first order rate constant for metabolism) [1]: 0.47 min⁻¹

SMILES: CN(C)CCNc1n[n+]([O-])c2cc3c(cc2[n+]1[O-])CCC3 [TTO 4]
- kmet (first order rate constant for metabolism) [1]: 0.44 min⁻¹
- E(1) [2]: −486 mV

SMILES: CCN(CC)CCNc1n[n+]([O-])c2cc3c(cc2[n+]1[O-])CCC3 [TTO 5]
- kmet (first order rate constant for metabolism) [1]: 1.08 min⁻¹

SMILES: CCCN(CCC)CCNc1n[n+]([O-])c2cc3c(cc2[n+]1[O-])CCC3 [TTO 6]
- kmet (first order rate constant for metabolism) [1]: 1.07 min⁻¹

SMILES: [O-][n+]1nc(NCCN2CCCCC2)[n+]([O-])c2cc3c(cc21)CCC3 [TTO 7]
- kmet (first order rate constant for metabolism) [1]: 1.25 min⁻¹

SMILES: [O-][n+]1nc(NCCCN2CCOCC2)[n+]([O-])c2cc3c(cc21)CCC3 [TTO 8]
- kmet (first order rate constant for metabolism) [1]: 0.19 min⁻¹

SMILES: CN(C)CCNc1n[n+]([O-])c2c3c(ccc2[n+]1[O-])CCC3 [TTO 9]
- kmet (first order rate constant for metabolism) [1]: 0.74 min⁻¹
- E(1) [2]: −480 mV

SMILES: CCN(CC)CCNc1n[n+]([O-])c2c3c(ccc2[n+]1[O-])CCC3 [TTO 10]
- kmet (first order rate constant for metabolism) [1]: 0.97 min⁻¹

SMILES: CCCN(CCC)CCNc1n[n+]([O-])c2c3c(ccc2[n+]1[O-])CCC3 [TTO 11]
- kmet (first order rate constant for metabolism) [1]: 0.73 min⁻¹

SMILES: [O-][n+]1nc(NCCN2CCCCC2)[n+]([O-])c2ccc3c(c21)CCC3 [TTO 12]
- kmet (first order rate constant for metabolism) [1]: 1.60 min⁻¹

SMILES: [O-][n+]1nc(NCCCN2CCOCC2)[n+]([O-])c2ccc3c(c21)CCC3 [TTO 13]
- kmet (first order rate constant for metabolism) [1]: 0.20 min⁻¹
- E(1) [2]: −510 mV

SMILES: CC1Cc2cc3c(cc2C1)[n+]([O-])c(NCCN(C)C)n[n+]3[O-] (centres unmarked) [TTO 14]
- kmet (first order rate constant for metabolism) [1]: 1.49 min⁻¹

SMILES: CC1Cc2cc3c(cc2C1)[n+]([O-])c(NCCCN1CCOCC1)n[n+]3[O-] (centres unmarked) [TTO 15]
- kmet (first order rate constant for metabolism) [1]: 0.13 min⁻¹

SMILES: [O-][n+]1nc(NCCCN2CCOCC2)[n+]([O-])c2cc3c(cc21)CCCC3 [TTO 17]
- kmet (first order rate constant for metabolism) [1]: 0.69 min⁻¹

SMILES: CN(C)CCNc1n[n+]([O-])c2c3c(ccc2[n+]1[O-])CCCC3 [TTO 18]
- kmet (first order rate constant for metabolism) [1]: 1.78 min⁻¹

SMILES: CN(C)CCNc1n[n+]([O-])c2cc3c(cc2[n+]1[O-])CCCCC3 [TTO 19]
- kmet (first order rate constant for metabolism) [1]: 1.52 min⁻¹
- E(1) [2]: −488 mV

SMILES: [O-][n+]1nc(NCCCN2CCOCC2)[n+]([O-])c2cc3c(cc21)OCC3 [TTO 21]
- kmet (first order rate constant for metabolism) [1]: 0.20 min⁻¹
- EVT based on X½ (in words) [3]: predicted to display improved EVT

SMILES: Nc1n[n+]([O-])c2cc3c(cc2[n+]1[O-])OCC3 [TTO 22]
- hypoxic selectivity (in words) [4]: failed to pass the criterion for hypoxic selectivity (HCR > 20)

SMILES: CN(C)CCNc1n[n+]([O-])c2cc3c(cc2[n+]1[O-])OCC3 [TTO 23]
- kmet (first order rate constant for metabolism) [1]: 0.60 min⁻¹
- E(1) [2]: −545 mV

SMILES: CCN(CC)CCNc1n[n+]([O-])c2cc3c(cc2[n+]1[O-])OCC3 [TTO 24]
- kmet (first order rate constant for metabolism) [1]: 0.26 min⁻¹
- EVT based on X½ (in words) [3]: predicted to display improved EVT

SMILES: [O-][n+]1nc(NCCCN2CCOCC2)[n+]([O-])c2cc3c(cc21)CCO3 [TTO 25]
- kmet (first order rate constant for metabolism) [1]: 0.23 min⁻¹
- EVT based on X½ (in words) [3]: predicted to display improved EVT

SMILES: CN(C)CCNc1n[n+]([O-])c2c3c(ccc2[n+]1[O-])OCCC3 [TTO 29]
- kmet (first order rate constant for metabolism) [1]: 0.59 min⁻¹

SMILES: CCN1Cc2cc3c(cc2C1)[n+]([O-])c(N)n[n+]3[O-] [TTO 31]
- kmet (first order rate constant for metabolism) [1]: 2.20 min⁻¹
- E(1) [2]: −390 mV

SMILES: CCNc1n[n+]([O-])c2cc3c(cc2[n+]1[O-])CN(C)CC3 [TTO 32]
- E(1) [2]: −462 mV

SMILES: CC1Cc2cc3c(cc2C1)[n+]([O-])c(CCCO)n[n+]3[O-] (centres unmarked) [TTO 33]
- kmet (first order rate constant for metabolism) [1]: 0.24 min⁻¹

SMILES: CCc1n[n+]([O-])c2cc3c(cc2[n+]1[O-])CC(CO)C3 (centres unmarked) [TTO 35]
- kmet (first order rate constant for metabolism) [1]: 0.47 min⁻¹
- E(1) [2]: −452 mV

SMILES: CCc1n[n+]([O-])c2cc3c(cc2[n+]1[O-])CC(CN1CCOCC1)C3 (centres unmarked) [TTO 36]
- kmet (first order rate constant for metabolism) [1]: 0.54 min⁻¹

SMILES: [O-][n+]1nc(CCCN2CCOCC2)[n+]([O-])c2cc3c(cc21)CC(CO)C3 (centres unmarked) [TTO 37]
- kmet (first order rate constant for metabolism) [1]: 0.90 min⁻¹
- E(1) [2]: −408 mV

SMILES: CCc1n[n+]([O-])c2cc3c(cc2[n+]1[O-])CC(CCO)C3 (centres unmarked) [TTO 38]
- kmet (first order rate constant for metabolism) [1]: 0.54 min⁻¹

SMILES: CCc1n[n+]([O-])c2cc3c(cc2[n+]1[O-])CC(CCN1CCOCC1)C3 (centres unmarked) [TTO 39]
- kmet (first order rate constant for metabolism) [1]: 0.54 min⁻¹
- E(1) [2]: −431 mV
- X½ (penetration half distance) ([3]; anoxic HT29 tumor tissue, from D and kmet): 100 μm

SMILES: [O-][n+]1nc(CCCN2CCOCC2)[n+]([O-])c2cc3c(cc21)CCO3 [TTO 40]
- kmet (first order rate constant for metabolism) [1]: 0.31 min⁻¹
- E(1) [2]: −468 mV

SMILES: CCc1n[n+]([O-])c2cc3c(cc2[n+]1[O-])CN(C)CC3 [TTO 41]
- E(1) [2]: −344 mV

SMILES: Nc1n[n+]([O-])c2ccccc2[n+]1[O-] [compound 1, tirapazamine]
- logP7.4 calc [5]: −0.33
- Sol. [6]: 9 mM
- E(1) [7]: −456 mV

SMILES: COc1ccc2c(c1)[n+]([O-])c(NCCN(C)C)n[n+]2[O-] [compound 2]
- pKa [8]: 8.5
- logP7.4 calc [5]: −0.07
- D calc (diffusion coefficient in HT29 MCLs) [9]: 2.9 ×10^−7 cm^2s^−1
- SiHa HCR ([10]; oxic IC50/hypoxic IC50): 232
- IC50 ([10]; read-out: SiHa IC50 hypox, anoxic): 2900 nM
- Sol. [6]: 46 mM
- IC50 [11]: 7.7 µM
- kmet (first order rate constant for metabolism) [12]: 0.54 min⁻¹
- E(1) [7]: −500 mV
- lowering of E(1) by 6-OMe substituent ([7]; relative to the 3-dimethylaminoethylamine BTO): 104 mV
